Tests used:
[1] = molecular target: T1, NE (Homo sapiens, UniProt P08246); experiment: enzyme kinetics: SlaaapN cleavage by NE in the presence of inhibitor; type: biochemical
T1 construct: purchased Athens Research and Technology, US
T1 sequence (P08246 30-267): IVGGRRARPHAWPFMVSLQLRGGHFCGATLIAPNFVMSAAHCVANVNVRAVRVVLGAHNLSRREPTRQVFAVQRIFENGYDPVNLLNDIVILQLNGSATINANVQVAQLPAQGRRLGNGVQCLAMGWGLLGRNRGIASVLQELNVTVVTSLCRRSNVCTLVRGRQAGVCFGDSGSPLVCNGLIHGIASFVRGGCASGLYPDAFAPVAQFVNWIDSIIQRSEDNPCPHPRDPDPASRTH
Description: Results were determined computationally using Prism software.

[2] = molecular target: T2, neutrophil elastase (Homo sapiens, UniProt P08246); experiment: proteinase/anti-proteinase imbalance model (fMLP-stimulated isolated neutrophils with fibrinogen, NE activity footprint Aα-Val360); type: cell-based; details: for NE activity remaining, % of untreated (Aα-Val360): no inhibitor = 100%
T2 construct: Neutrophils from healthy young volunteers were isolated; endogenous in cells; host or cells: neutrophils isolated from blood of healthy young volunteers, stimulated with fMLP in the presence of fibrinogen
T2 sequence (P08246 30-267): T1 sequence (P08246 30-267)
Description: Neutrophils from healthy young volunteers were isolated using a method broadly described by Jepsen and Skottun [10].
Supernatant was obtained through centrifugation, and NE activity footprints were measured.

[3] = system: neutrophils; experiment: validation of the Aα-Val360 assay with stimulated neutrophils; type: cell-based, human; details: 15 minutes
Description: Baseline corrected Aα-Val^360 levels following stimulation of neutrophils at 2.5 million/ml with Cal at 2.4/2.1/1.8/1.5/1.2/0.9/0.6/0.3 μM with fibrinogen (550 nM) for 60 minutes; n=3.
Change in Aα-Val^360 levels following stimulation of neutrophils at 2.5 million/ml with fMLP at 0, 0.1,1,10 μM fMLP with fibrinogen (550 nM) for 15 minutes; n=3.
To determine maximal stimulation a potent stimulator of neutrophils, Cal, [11] was titrated out from 0-2.4 μM and specific proteinase fibrinogen-cleavage product measured.
To assess a more physiological stimulus, neutrophils were then incubated with N-formylmethionine-leucyl-phenylalanine (fMLP).

[4] = molecular target: Porcine Pancreatic Elastase (Sus scrofa, UniProt P00772); experiment: enzyme kinetics: SlaaapN cleavage by PPE after incubation with AAT; type: biochemical
Porcine Pancreatic Elastase, sequence (P00772 27-266): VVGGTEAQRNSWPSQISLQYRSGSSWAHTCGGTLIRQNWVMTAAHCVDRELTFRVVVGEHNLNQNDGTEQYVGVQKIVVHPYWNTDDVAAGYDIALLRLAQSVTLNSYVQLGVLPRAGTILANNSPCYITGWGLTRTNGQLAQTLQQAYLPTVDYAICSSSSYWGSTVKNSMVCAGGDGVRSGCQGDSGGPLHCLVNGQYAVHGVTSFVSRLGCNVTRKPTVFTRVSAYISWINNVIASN

[5] = simple linear regression, control fixed at 100%

Compound: Cc1c(-c2ccnn2C)cc(C(=O)NCc2ccc(S(C)(=O)=O)cn2)c(=O)n1-c1cccc(C(F)(F)F)c1 [alvelestat, 6-methyl-5-(1-methyl-1H-pyrazol-5-yl)-N-{[5-(methylsulfonyl)pyridin-2-yl]methyl}-2-oxo-1-[3-(trifluoromethyl)phenyl]-1,2-dihydropyridine-3-carboxamide]
- molar ratio of inhibitor required to fully inhibit NE (inhibitor:NE, x:1) ([1]; SlaaapN substrate, by extrapolation): 0.87
- Slope, best-fit value (alvelestat:NE ratio vs NE enzymatic activity, FIG. 7) [1, 5]: −114.4
- X-intercept, best-fit value (alvelestat:NE ratio vs NE enzymatic activity, FIG. 7) [1, 5]: 0.8742
- alvelestat activity against NE ([1]; titrated against elastase of known concentration and activity, Prism): 88%
- NE activity remaining, % of untreated (Aα-Val360) ([2]; alvelestat 10 nM): 60.1%
- NE activity remaining, % of untreated (Aα-Val360) ([2]; alvelestat 1000 nM): 27.4%
- inhibition at 1 µM ([2]; read-out: inhibition (suppression) of NE activity): 72.6%

Compound: CSCC[C@H](NC=O)C(=O)N[C@@H](CC(C)C)C(=O)N[C@@H](Cc1ccccc1)C(=O)O [fMLP, N-formyl-L-methionyl-L-leucyl-phenylalanine]
- increase of NE activity (Aα-Val360) ([3]; 0.1 μM fMLP, neutrophils 2.5 million/ml, fibrinogen 550 nM): 11.4 nM
- further increase of NE activity (Aα-Val360) ([3]; 1 μM fMLP, relative to 0.1 μM): 7.3 nM
- increase of NE activity (Aα-Val360) ([3]; 10 μM fMLP, the values are: Aα-Val360 level (NE activity)): 35 nM

Compound: AAT: protective anti-proteinase alpha-1 antitrypsin, physiological inhibitor of neutrophil serine proteinases; purified batch from Athens Research & Technology
- molar concentration of AAT required to neutralise 1 Mol active PPE ([4]; SlaaapN substrate): 1.208 mol
- functional AAT activity ([4]; calculated from 1.208:1 AAT:PPE): 83%
